{"source": "paper PMC12332266", "about": "(Frontiers in Pharmacology, 2025)", "key": {"[1]": {"system": "hiPSC-CM (iCell Cardiomyocytes^2)", "experiment": "RTCA CardioECR assessment (impedance and electrophysiology parameters)", "procedure,_shortened": "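iCell^2 cardiomyocytes on fibronectin-coated ePlates monitored continuously by impedance for cell index, beating rate and amplitude. Field potential duration and spike amplitude were recorded from day 4–6 after monolayer formation. Data were double-normalized to DMSO control and baseline, with variability given as SD.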"}, "[2]": {"system": "hiPSC-CM (iCell Cardiomyocytes^2)", "experiment": "Intracellular miRNA expression by RT-qPCR in hiPSC-CM pellets after 72-hour treatment", "conditions": "for fold induction at 0.1 µM / fold induction at 0.3 µM / fold induction at 1 µM / fold induction at 3 µM: Homo sapiens, 72 h", "procedure,_shortened": "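After 72-hour treatment and RTCA CardioECR assessment, total RNA from hiPSC-CM pellets was reverse transcribed, pre-amplified and quantified by TaqMan RT-qPCR against a 17-miRNA panel. Triplicates were pooled, so no statistical analysis was performed.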"}, "[3]": {"conditions": "ref extensive literature search, cited from earlier work"}, "[4]": {"conditions": "read-out: hsa-miR-7-5p fold change"}, "[5]": {"conditions": "read-out: hsa-miR-29a-5p fold change"}, "[6]": {"conditions": "read-out: hsa-miR-96-5p fold change"}, "[7]": {"conditions": "read-out: hsa-miR-126-3p fold change"}, "[8]": {"conditions": "read-out: hsa-miR-133b fold change"}, "[9]": {"conditions": "read-out: hsa-miR-146b-5p fold change"}, "[10]": {"conditions": "read-out: hsa-miR-182-5p fold change"}, "[11]": {"conditions": "read-out: hsa-miR-185-3p fold change"}, "[12]": {"conditions": "read-out: hsa-miR-187-3p fold change"}, "[13]": {"conditions": "read-out: hsa-miR-208b-3p fold change"}, "[14]": {"conditions": "read-out: hsa-miR-365a-5p fold change"}}, "note": "Where two headings read alike, the source gives them in different places."}
{"smiles": "CC(=O)[C@]1(O)Cc2c(O)c3c(c(O)c2[C@@H](O[C@H]2C[C@H](N)[C@H](O)[C@H](C)O2)C1)C(=O)c1ccccc1C3=O", "note": "[Idarubicin]", "values": [{"measurement": "Cell index (CI) MEC", "setting": "[1]; hiPSC-CM, 72-hour treatment, lowest concentration causing at least 20% change from baseline", "result": 0.1, "unit": "µM"}, {"measurement": "RTCA, MEC (CI)", "setting": "[1]; hiPSC-CM, change ≥20%, Table 2", "result": "0.1 µM (CI, BR)"}, {"measurement": "Beating Rate MEC", "setting": "[1]; human, 72 h", "result": 0.1, "unit": "µM"}, {"measurement": "Beating rate (BR) MEC", "setting": "[1]; human, 72 h", "result": 0.1, "unit": "µM"}, {"measurement": "Cell Index MEC", "setting": "[1]; human, 72 h", "result": 0.1, "unit": "µM"}, {"measurement": "Contractility Amplitude MEC", "setting": "[1]; human, 72 h", "result": 1, "unit": "µM"}, {"measurement": "Field Potential Duration MEC", "setting": "[1]; human, 72 h", "result": 0.1, "unit": "µM"}, {"measurement": "RTCA, MEC (BR)", "setting": "[1]; human, 72 h", "result": "0.1 µM (CI, BR)"}, {"measurement": "Spike Amplitude (SA) MEC", "setting": "[1]; human, 72 h", "result": 0.1, "unit": "µM"}, {"measurement": "miRNAs hiPSC-CM pellet, MEC overall", "setting": "[2]", "result": 0.3, "unit": "µM"}, {"measurement": "miRNAs upregulated at the MEC overall (hiPSC-CM pellet)", "setting": "[2]", "result": "miR-96 -5p, miR-126-3p, miR-133b, miR-185-3p"}, {"measurement": "fold induction at 0.1 µM", "setting": "[2]; [4]", "result": 4.5}, {"measurement": "fold induction at 0.3 µM", "setting": "[2]; [4]", "result": 5.8}, {"measurement": "fold induction at 1 µM", "setting": "[2]; [4]", "result": 3.5}, {"measurement": "fold induction at 3 µM", "setting": "[2]; [4]", "result": 0.2}, {"measurement": "fold induction at 0.1 µM", "setting": "[2]; [5]", "result": 1.2}, {"measurement": "fold induction at 0.3 µM", "setting": "[2]; [5]", "result": 4.4}, {"measurement": "fold induction at 1 µM", "setting": "[2]; [5]", "result": 1.2}, {"measurement": "fold induction at 3 µM", "setting": "[2]; [5]", "result": 3}, {"measurement": "fold induction at 0.1 µM", "setting": "[2]; [6]", "result": 9}, {"measurement": "fold induction at 0.3 µM", "setting": "[2]; [6]", "result": 21.3}, {"measurement": "fold induction at 1 µM", "setting": "[2]; [6]", "result": 53.4}, {"measurement": "fold induction at 3 µM", "setting": "[2]; [6]", "result": 0.8}, {"measurement": "fold induction at 0.1 µM", "setting": "[2]; [7]", "result": 1}, {"measurement": "fold induction at 0.3 µM", "setting": "[2]; [7]", "result": 1.3}, {"measurement": "fold induction at 1 µM", "setting": "[2]; [7]", "result": 0.7}, {"measurement": "fold induction at 3 µM", "setting": "[2]; [7]", "result": 1.1}, {"measurement": "fold induction at 0.1 µM", "setting": "[2]; [8]", "result": 0.5}, {"measurement": "fold induction at 0.3 µM", "setting": "[2]; [8]", "result": 2.5}, {"measurement": "fold induction at 1 µM", "setting": "[2]; [8]", "result": 1.2}, {"measurement": "fold induction at 3 µM", "setting": "[2]; [8]", "result": 10.9}, {"measurement": "fold induction at 0.1 µM", "setting": "[2]; [9]", "result": 3.5}, {"measurement": "fold induction at 0.3 µM", "setting": "[2]; [9]", "result": 7.3}, {"measurement": "fold induction at 1 µM", "setting": "[2]; [9]", "result": 2}, {"measurement": "fold induction at 3 µM", "setting": "[2]; [9]", "result": 3.4}, {"measurement": "fold induction at 0.1 µM", "setting": "[2]; [10]", "result": 0.03}, {"measurement": "fold induction at 0.3 µM", "setting": "[2]; [10]", "result": 0.1}, {"measurement": "fold induction at 1 µM", "setting": "[2]; [10]", "result": 0.4}, {"measurement": "fold induction at 3 µM", "setting": "[2]; [10]", "result": 0.7}, {"measurement": "fold induction at 0.1 µM", "setting": "[2]; [11]", "result": 1.6}, {"measurement": "fold induction at 0.3 µM", "setting": "[2]; [11]", "result": 1.3}, {"measurement": "fold induction at 1 µM", "setting": "[2]; [11]", "result": 1}, {"measurement": "fold induction at 0.1 µM", "setting": "[2]; [12]", "result": 9}, {"measurement": "fold induction at 0.3 µM", "setting": "[2]; [12]", "result": 8.5}, {"measurement": "fold induction at 1 µM", "setting": "[2]; [12]", "result": 2.9}, {"measurement": "fold induction at 3 µM", "setting": "[2]; [12]", "result": 1.9}, {"measurement": "fold induction at 0.1 µM", "setting": "[2]; [13]", "result": 0.5}, {"measurement": "fold induction at 0.3 µM", "setting": "[2]; [13]", "result": 0.6}, {"measurement": "fold induction at 1 µM", "setting": "[2]; [13]", "result": 0.8}, {"measurement": "fold induction at 3 µM", "setting": "[2]; [13]", "result": 2}, {"measurement": "fold induction at 0.1 µM", "setting": "[2]; [14]", "result": 3.5}, {"measurement": "fold induction at 0.3 µM", "setting": "[2]; [14]", "result": 2.1}, {"measurement": "fold induction at 1 µM", "setting": "[2]; [14]", "result": 1.1}, {"measurement": "fold induction at 3 µM", "setting": "[2]; [14]", "result": 3.4}, {"measurement": "fold induction at 0.1 µM", "setting": "[2]; read-out: hsa-miR-[…] change", "result": 1}, {"measurement": "fold induction at 0.3 µM", "setting": "[2]; read-out: hsa-miR-[…] change", "result": 1.1}, {"measurement": "fold induction at 1 µM", "setting": "[2]; read-out: hsa-miR-[…] change", "result": 0.7}, {"measurement": "fold induction at 3 µM", "setting": "[2]; read-out: hsa-miR-[…] change", "result": 3.4}, {"measurement": "Cmax total", "setting": "[3]; Supplementary Table 1", "result": "120 to 3800", "unit": "nM"}, {"measurement": "Cmax total", "setting": "[3]; Table 1", "result": "120 to 3800", "unit": "nM"}]}
